From ChEMBL document CHEMBL1201861, “Genomics of Drug Sensitity in Cancer screening data, Wellcome Trust Sanger Institute”
Blank lines part the entries; values can stand above or below the compound they belong to.

Columns and labels:
Experiment in all cases: cells
NB12 = assay type: functional, cell-based; details: Homo sapiens;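 also: growth inhibition of human NB12 cells, read out by a cell viability assay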
Description: SANGER: Inhibition of human NB12 cell growth in a cell viability assay.

KYSE-70 cell line = assay type: functional, cell-based; details: Homo sapiens;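 also: cell viability assay read-out, with IC50 expressing suppression of KYSE-70 cell growth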
Description: SANGER: Inhibition of human KYSE-70 cell growth in a cell viability assay.

KYSE-150 cell line = assay type: functional, cell-based; details: Homo sapiens;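 also: growth inhibition of human KYSE-150 cells, read out with a cell viability assay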
Description: SANGER: Inhibition of human KYSE-150 cell growth in a cell viability assay.

KU812 cell line = assay type: functional, cell-based, Homo sapiens; details: Homo sapiens, KU812;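 also: growth inhibition of KU812 cells, read out with a cell viability assay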
Description: SANGER: Inhibition of human KU812 cell growth in a cell viability assay.

A253 cell line = assay type: functional, cell-based, Homo sapiens; details: Homo sapiens, A253;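 also: growth inhibition of A253 cells, read out with a cell viability assay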
Description: SANGER: Inhibition of human A253 cell growth in a cell viability assay.

KYSE-520 cell line = assay type: functional, cell-based; details: Homo sapiens;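 also: growth inhibition of human KYSE-520 cells, read out with a viability assay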
Description: SANGER: Inhibition of human KYSE-520 cell growth in a cell viability assay.

LCLC-103H cell line = assay type: functional, cell-based; details: Homo sapiens
Description: SANGER: Inhibition of human LCLC-103H cell growth in a cell viability assay.

LXF-289 cell line = assay type: functional, cell-based; details: Homo sapiens
Description: SANGER: Inhibition of human LXF-289 cell growth in a cell viability assay.

COLO-800 = assay type: functional, cell-based, Homo sapiens; details: Homo sapiens, COLO-800;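 also: growth inhibition of COLO-800 cells, read out with a cell viability assay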
Description: SANGER: Inhibition of human COLO-800 cell growth in a cell viability assay.

MHH-ES-1 = assay type: functional, cell-based; details: Homo sapiens;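 also: cell growth inhibition measured by a cell viability assay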
Description: SANGER: Inhibition of human MHH-ES-1 cell growth in a cell viability assay.

NB69 = assay type: functional, cell-based, Homo sapiens; details: Homo sapiens, NB69;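 also: growth inhibition of NB69 cells, determined by a cell viability assay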
Description: SANGER: Inhibition of human NB69 cell growth in a cell viability assay.

- IC50 (NB12): 1.31 µM
Structure (SMILES): O=C1/C(=C/c2cccs2)CC/C1=C\c1cccs1

- IC50 (KYSE-70 cell line): > 2 µM
- IC50 (KYSE-150 cell line): 0.727 µM
- IC50 (KU812 cell line): 0.203 µM
- IC50 (A253 cell line): 1.26 µM
- IC50 (KYSE-520 cell line): 0.236 µM
- IC50 (LCLC-103H cell line): > 2 µM
- IC50 (LXF-289 cell line): > 2 µM
Structure (SMILES): O=C(NOC[C@H](O)CO)c1ccc(F)c(F)c1Nc1ccc(I)cc1F [MIRDAMETINIB]

- IC50 (COLO-800): 0.632 µM
- IC50 (MHH-ES-1): 0.501 µM
- IC50 (NB69): 0.946 µM
Structure (SMILES): CNCc1ccc(-c2[nH]c3cc(F)cc4c3c2CCNC4=O)cc1 [RUCAPARIB]
